# Data: patent US9040500B2, “Method for treating hematopoietic neoplasms” (priority 2007, dated 2015)
# What was measured:
# subcutaneous HL60 tumors [1] = experiment: Subcutaneous in vivo leukemia model (Example 1); design: species or system athymic nu/nu mice; conditions: for tumor volume / tumor growth versus control (PBS): CA1dP or CA4P 75 mg/kg/inj, Ara-C 20 mg/kg/inj, HL60 s.c. in nu/nu mice
# Procedure: (§1) HL60 (1×10^7 cells in 0.1 ml) were injected subcutaneously into the dorsa of 4-6 week old athymic nu/nu mice (Southern Research Institute). When palpable tumors were evident (average tumor volume 100 mm^3; i.e. approximately 12 days after inoculation), 6 experimental groups of mice were randomized, each with 10 animals. Treatment was initiated according to the following regimens:
# Tumor volume was measured three times a week until the endpoint was reached (tumor volume >3000 mm^3), or for 90 days post-treatment.
# subcutaneous HL60 tumors [2] = experiment: Dose response activity in subcutaneous HL60 model (Example 2); type: in vivo, athymic nu/nu mice
# Procedure: as §1, with “inoculation), ten” for “inoculation), 6”
# Tumor volume was measured three times per week.
# leukemic cells = experiment: Leukemic cell proliferation and cell death in vitro; type: cell-based; conditions: low and non-toxic doses
# [3] = test system: intracellular reactive oxygen species (ROS); experiment: Intracellular reactive oxygen species in leukemic cells; type: cell-based
# [4] = test system: subcutaneous solid tumors; conditions: concentrations well below the maximum tolerated dose; cited from earlier work
# tubulin = conditions: cited from earlier work
# [5] = CA1dP 75 mg/kg/inj with addition of Ara-C 20 mg/kg/inj
# [6] = subcutaneous mouse models of AML, single agent (introduction summary)
# [7] = CA1dP combined with araC 20 mg/kg/inj
smiles,measurement,setting,value
"Nc1ccn([C@@H]2O[C@H](CO)[C@@H](O)[C@@H]2O)c(=O)n1 [Ara-C, cytosine arabinoside, reference compound]",tumor volume / tumor growth versus control (PBS),subcutaneous HL60 tumors [1]; single agent,little improvement
"COc1cc(/C=C\c2ccc(OC)c(OP(=O)(O)O)c2OP(=O)(O)O)cc(OC)c1OC [CA1dP, combretastatin A-1 diphosphate]",complete regressions out of ten treated mice,subcutaneous HL60 tumors [1]; [5],six
same,tumor volume versus CA1dP alone,subcutaneous HL60 tumors [1]; [5],further decreased tumor volumes
same,tumor load with co-administered chemotherapeutic agent,subcutaneous HL60 tumors [1]; co-administration of AraC (introduction summary),decreases tumor load even further
same,complete tumor regressions in a population of ten treated mice,"subcutaneous HL60 tumors [1]; single agent, 75 mg/kg/inj Q7D x 2",five
same,tumor volume / tumor growth versus control (PBS),subcutaneous HL60 tumors [1]; single agent,substantial decreases in tumor volume
same,survival of treated mice,subcutaneous HL60 tumors [1]; [6],significantly prolonged survival
same,tumor load of treated mice,subcutaneous HL60 tumors [1]; [6],significantly decreased tumor load
same,decrease in tumor volume relative to dose,"subcutaneous HL60 tumors [2]; CA1dP 2.5, 10, 25, 75 mg/kg/inj, day 3 and 10",clear dose response relationship
same,"duration of tumor growth inhibition, combination versus CA1dP alone",subcutaneous HL60 tumors [2]; [7],longer growth inhibition
same,"number of complete responses, combination versus CA1dP alone",subcutaneous HL60 tumors [2]; [7],not significantly altered
same,anti-tumor activity,subcutaneous HL60 tumors [2]; doses of CA1dP above 2.5 mg/kg,significant anti-tumor activity
same,leukemic cell proliferation in vitro,leukemic cells,inhibit leukemic cell proliferation in vitro
same,mitotic arrest and cell death of leukemic cells,leukemic cells,induce mitotic arrest and cell death
same,intracellular reactive oxygen species (ROS),[3],rapidly increases intracellular reactive oxygen species
same,microtubule depolymerization and vascular shutdown causing tumor necrosis,[4],induces rapid microtubule depolymerization and vascular shutdown
"COc1ccc(/C=C\c2cc(OC)c(OC)c(OC)c2)cc1OP(=O)(O)O [CA4P, combretastatin A-4 phosphate, reference compound]",life span versus controls,"subcutaneous HL60 tumors [1]; single agent, 75 mg/kg/inj",extended life span
same,tumor volume / tumor growth versus control (PBS),subcutaneous HL60 tumors [1]; single agent,delayed tumor growth
COc1ccc(/C=C\c2cc(OC)c(OC)c(OC)c2)c(O)c1O [Combretastatin A-1],"affinity for tubulin at the colchicine site, relative to colchicine",tubulin,higher affinity
